Assays:
[1] = molecular target: T1, Alpha-1A adrenergic receptor (Homo sapiens, UniProt P35348)
T1 sequence (P35348 whole entry): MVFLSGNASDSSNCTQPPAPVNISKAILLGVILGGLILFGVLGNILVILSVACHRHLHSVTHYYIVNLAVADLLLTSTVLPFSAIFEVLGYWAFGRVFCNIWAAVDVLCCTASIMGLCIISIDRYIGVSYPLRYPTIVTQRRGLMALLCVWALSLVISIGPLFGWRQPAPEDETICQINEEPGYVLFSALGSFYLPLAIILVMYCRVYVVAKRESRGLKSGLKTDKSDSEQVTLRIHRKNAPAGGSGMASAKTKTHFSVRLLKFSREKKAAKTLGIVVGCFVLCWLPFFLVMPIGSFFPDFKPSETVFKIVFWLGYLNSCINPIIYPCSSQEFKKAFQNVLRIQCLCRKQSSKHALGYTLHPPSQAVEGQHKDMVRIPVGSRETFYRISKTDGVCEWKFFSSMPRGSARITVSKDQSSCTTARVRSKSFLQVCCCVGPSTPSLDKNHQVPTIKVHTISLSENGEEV

[2] = molecular target: T2, Corticotropin-releasing factor receptor 2 (Homo sapiens, UniProt Q13324)
T2 sequence (Q13324 whole entry): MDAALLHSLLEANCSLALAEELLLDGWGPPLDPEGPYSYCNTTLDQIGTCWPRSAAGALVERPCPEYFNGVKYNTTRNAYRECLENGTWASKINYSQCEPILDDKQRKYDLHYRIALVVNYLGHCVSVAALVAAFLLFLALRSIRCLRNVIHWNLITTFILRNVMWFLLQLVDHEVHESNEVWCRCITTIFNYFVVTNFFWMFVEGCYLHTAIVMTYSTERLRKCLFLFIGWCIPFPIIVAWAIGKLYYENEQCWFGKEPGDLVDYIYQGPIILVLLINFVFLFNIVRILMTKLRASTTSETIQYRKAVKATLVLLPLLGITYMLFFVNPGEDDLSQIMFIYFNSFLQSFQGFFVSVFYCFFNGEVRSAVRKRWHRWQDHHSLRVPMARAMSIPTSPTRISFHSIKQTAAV

[3] = molecular target: cGMP-inhibited 3',5'-cyclic phosphodiesterase 3A (Homo sapiens, UniProt Q14432); assay type: functional
cGMP-inhibited 3',5'-cyclic phosphodiesterase 3A, sequence (Q14432 whole entry): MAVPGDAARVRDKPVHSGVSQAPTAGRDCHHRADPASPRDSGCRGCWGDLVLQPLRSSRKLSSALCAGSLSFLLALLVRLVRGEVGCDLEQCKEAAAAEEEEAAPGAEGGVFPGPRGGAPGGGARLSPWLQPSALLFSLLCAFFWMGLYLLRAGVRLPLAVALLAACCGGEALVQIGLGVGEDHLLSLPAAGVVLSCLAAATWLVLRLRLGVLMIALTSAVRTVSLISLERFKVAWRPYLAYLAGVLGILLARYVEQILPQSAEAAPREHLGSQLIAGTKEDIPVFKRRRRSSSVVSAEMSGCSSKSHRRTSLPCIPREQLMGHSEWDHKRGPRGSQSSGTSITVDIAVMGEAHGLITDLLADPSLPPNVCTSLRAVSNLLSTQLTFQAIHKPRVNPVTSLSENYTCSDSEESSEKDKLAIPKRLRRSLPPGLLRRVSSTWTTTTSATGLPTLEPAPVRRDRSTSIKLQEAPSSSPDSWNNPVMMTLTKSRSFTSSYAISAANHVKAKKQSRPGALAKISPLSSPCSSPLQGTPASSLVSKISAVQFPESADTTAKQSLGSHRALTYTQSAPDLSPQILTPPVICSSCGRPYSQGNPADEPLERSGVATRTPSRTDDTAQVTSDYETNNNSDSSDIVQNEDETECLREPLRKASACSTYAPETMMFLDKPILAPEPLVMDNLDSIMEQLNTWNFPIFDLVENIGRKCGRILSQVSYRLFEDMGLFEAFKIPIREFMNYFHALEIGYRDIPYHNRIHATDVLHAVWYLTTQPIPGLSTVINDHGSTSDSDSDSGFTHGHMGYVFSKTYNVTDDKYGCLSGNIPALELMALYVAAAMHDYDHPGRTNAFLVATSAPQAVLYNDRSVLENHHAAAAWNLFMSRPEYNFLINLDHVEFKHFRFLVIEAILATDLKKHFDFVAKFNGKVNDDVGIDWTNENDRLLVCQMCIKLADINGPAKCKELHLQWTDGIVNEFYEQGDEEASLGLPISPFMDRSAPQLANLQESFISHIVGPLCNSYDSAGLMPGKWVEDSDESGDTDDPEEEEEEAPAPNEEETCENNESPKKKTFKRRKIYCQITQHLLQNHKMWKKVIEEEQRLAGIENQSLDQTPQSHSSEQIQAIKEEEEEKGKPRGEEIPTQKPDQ

[4] = molecular target: T3, Muscarinic acetylcholine receptor M2 (Homo sapiens, UniProt P08172); assay type: functional, cell-based
T3 sequence (P08172 whole entry): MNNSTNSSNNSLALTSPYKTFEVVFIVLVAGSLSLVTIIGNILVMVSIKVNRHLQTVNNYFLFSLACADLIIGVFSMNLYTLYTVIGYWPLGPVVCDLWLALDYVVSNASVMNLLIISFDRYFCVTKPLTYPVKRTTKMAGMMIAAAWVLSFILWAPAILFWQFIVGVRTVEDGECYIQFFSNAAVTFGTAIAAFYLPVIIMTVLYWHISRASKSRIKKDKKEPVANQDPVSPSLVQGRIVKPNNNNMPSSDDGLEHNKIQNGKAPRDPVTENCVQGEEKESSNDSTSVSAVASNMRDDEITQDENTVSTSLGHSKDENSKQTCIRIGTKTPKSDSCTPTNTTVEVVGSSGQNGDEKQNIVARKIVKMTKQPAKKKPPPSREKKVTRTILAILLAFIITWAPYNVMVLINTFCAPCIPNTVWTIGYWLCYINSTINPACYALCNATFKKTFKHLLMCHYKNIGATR

Estrogen receptor = molecular target: T4, Estrogen receptor (Homo sapiens, UniProt P03372)
T4 sequence (P03372 whole entry): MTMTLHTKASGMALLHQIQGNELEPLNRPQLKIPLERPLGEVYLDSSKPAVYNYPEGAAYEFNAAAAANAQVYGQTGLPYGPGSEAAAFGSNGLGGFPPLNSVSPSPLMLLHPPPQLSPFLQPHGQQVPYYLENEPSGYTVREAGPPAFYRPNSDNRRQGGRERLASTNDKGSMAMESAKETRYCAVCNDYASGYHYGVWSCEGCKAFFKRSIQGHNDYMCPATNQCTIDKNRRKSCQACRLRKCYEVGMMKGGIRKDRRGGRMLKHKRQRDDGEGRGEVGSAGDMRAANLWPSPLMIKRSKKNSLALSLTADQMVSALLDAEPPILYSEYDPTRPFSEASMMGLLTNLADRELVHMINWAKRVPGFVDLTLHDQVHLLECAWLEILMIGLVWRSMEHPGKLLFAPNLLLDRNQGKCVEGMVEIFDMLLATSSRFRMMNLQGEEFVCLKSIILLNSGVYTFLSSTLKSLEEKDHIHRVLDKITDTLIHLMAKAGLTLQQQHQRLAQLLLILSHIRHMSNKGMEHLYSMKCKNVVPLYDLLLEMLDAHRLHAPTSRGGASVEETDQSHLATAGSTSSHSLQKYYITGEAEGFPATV

[5] = molecular target: T1, Alpha-1A adrenergic receptor; remark: listed apart in the source
[6] = molecular target: T5, Alpha-2B adrenergic receptor (Homo sapiens, UniProt P18089)
T5 sequence (P18089 whole entry): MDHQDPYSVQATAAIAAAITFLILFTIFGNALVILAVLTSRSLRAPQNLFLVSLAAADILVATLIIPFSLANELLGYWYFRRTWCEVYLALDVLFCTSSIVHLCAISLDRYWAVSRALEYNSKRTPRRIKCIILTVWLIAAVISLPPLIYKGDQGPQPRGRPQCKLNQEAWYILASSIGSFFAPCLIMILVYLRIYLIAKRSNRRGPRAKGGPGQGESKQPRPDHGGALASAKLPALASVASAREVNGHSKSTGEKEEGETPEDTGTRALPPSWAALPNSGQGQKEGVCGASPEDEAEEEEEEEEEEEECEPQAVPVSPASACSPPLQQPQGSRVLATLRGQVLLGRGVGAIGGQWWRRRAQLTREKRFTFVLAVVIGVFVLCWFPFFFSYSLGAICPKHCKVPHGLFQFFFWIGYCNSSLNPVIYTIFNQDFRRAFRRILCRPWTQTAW
Further: assay procedure not described here.

SMILES | AC50 [1] [µM] | AC50 [2] [µM] | AC50 [3] [µM] | AC50 [4] [µM] | AC50 (Estrogen receptor) [µM] | AC50 [5] [µM] | AC50 [6] [µM]
CCOc1nc2cccc(C(=O)O)c2n1Cc1ccc(-c2ccccc2-c2nnn[nH]2)cc1 | > 10 | > 30 | 13 | > 30 | > 30 | > 10 | –
CCOc1cc([C@@H](CS(C)(=O)=O)N2C(=O)c3cccc(NC(C)=O)c3C2=O)ccc1OC | – | – | > 30 | > 30 | – | – | > 30
CC(=O)Nc1ccc(CC(=O)O)cc1 [ACTARIT] | – | – | > 30 | > 30 | > 30 | – | > 30
CC(C(=O)O)c1ccc2oc(-c3ccc(Cl)cc3)nc2c1 (stereo not given) [BENOXAPROFEN] | – | – | > 30 | > 30 | > 30 | – | –
CC1(C)S[C@@H]2[C@H](NC(=O)C(C(=O)O)c3ccccc3)C(=O)N2[C@H]1C(=O)O (stereo not given in full) [CARBENICILLIN] | – | – | > 30 | > 30 | – | – | > 30
Cc1nnc(SCC2=C(C(=O)O)N3C(=O)[C@@H](NC(=O)Cn4cnnn4)[C@H]3SC2)s1 [CEFAZOLIN] | – | – | > 300 | > 300 | > 30 | – | > 300
CC=CC1=C(C(=O)O)N2C(=O)[C@@H](NC(=O)[C@H](N)c3ccc(O)cc3)[C@H]2SC1 [CEFPROZIL] | – | – | > 30 | > 30 | > 30 | – | > 30
CC(C)(O/N=C(\C(=O)N[C@@H]1C(=O)N2C(C(=O)[O-])=C(C[n+]3ccccc3)CS[C@H]12)c1csc(N)n1)C(=O)O [CEFTAZIDIME] | – | – | > 300 | > 300 | > 30 | – | > 300
CC(C)NC(=N)NC(=N)Nc1ccc(Cl)c(Cl)c1 [CHLORPROGUANIL] | – | – | > 30 | – | – | – | 10
CCCNC(=O)NS(=O)(=O)c1ccc(Cl)cc1 [CHLORPROPAMIDE] | 5.7 | > 30 | > 30 | > 10 | > 30 | – | –
Cc1cc(C2CCCCC2)n(O)c(=O)c1 [CICLOPIROX] | – | – | > 30 | > 30 | – | – | –
C[N+](C)(C)CCOP(=O)(O)OP(=O)([O-])OC[C@H]1O[C@@H](n2ccc(N)nc2=O)[C@H](O)[C@@H]1O [CITICOLINE] | – | – | > 30 | > 30 | – | – | > 30
Clc1ccc(Cn2c(CN3CCCC3)nc3ccccc32)cc1 [CLEMIZOLE] | – | – | > 30 | > 10 | – | – | 13
CCC(=O)O[C@]1(C(=O)CCl)[C@@H](C)C[C@H]2[C@@H]3CCC4=CC(=O)C=C[C@]4(C)[C@@]3(F)[C@@H](O)C[C@@]21C [CLOBETASOL PROPIONATE] | – | – | > 30 | > 30 | – | – | –
Cc1nc(Nc2ncc(C(=O)Nc3c(C)cccc3Cl)s2)cc(N2CCN(CCO)CC2)n1 [DASATINIB] | > 10 | – | > 30 | > 30 | – | > 10 | > 30
CC(C)Cc1ccc([C@H](C)C(=O)O)cc1 [DEXIBUPROFEN] | – | – | > 30 | > 30 | – | – | –
O=C(O)Cc1ccccc1Nc1c(Cl)cccc1Cl [DICLOFENAC] | 5 | > 30 | > 30 | > 10 | – | > 10 | –

SMILES | AC50 [1] [µM] | AC50 [2] [µM] | AC50 [3] [µM] | AC50 [4] [µM] | AC50 (Estrogen receptor) [µM] | AC50 [5] [µM] | AC50 [6] [µM]
CNC[C@H](O)c1ccc(O)c(O)c1 [EPINEPHRINE] | – | – | > 30 | > 30 | – | – | –
Cc1onc(-c2c(F)cccc2Cl)c1C(=O)N[C@@H]1C(=O)N2[C@@H]1SC(C)(C)[C@@H]2C(=O)O [FLOXACILLIN] | – | – | > 30 | > 30 | – | – | > 30
Cc1ccc(C)c(OCCCC(C)(C)C(=O)O)c1 [GEMFIBROZIL] | 13.7 | > 30 | > 30 | > 10 | > 30 | > 10 | –
COc1ccccc1OC1(C)OC(=O)c2ccccc2O1 (stereo not given) [GUAIMESAL] | – | – | – | – | > 30 | – | –
CCCCCCCN(CC)CCCC(O)c1ccc(NS(C)(=O)=O)cc1 (stereo not given) [IBUTILIDE] | – | – | > 30 | > 30 | – | – | 18
COc1cc(C(C)=O)ccc1OCCCN1CCC(c2noc3cc(F)ccc23)CC1 [ILOPERIDONE] | – | – | – | > 30 | – | 0.0018 | 0.105
CC[C@H](C)C(=O)O[C@H]1C[C@@H](C)C=C2C=C[C@H](C)[C@H](CC[C@@H]3C[C@@H](O)CC(=O)O3)[C@H]21 [LOVASTATIN] | > 10 | > 30 | > 30 | > 10 | > 30 | > 10 | –
CC[C@@H](CO)NC(=O)[C@@H]1C=C2c3cccc4c3c(cn4C)C[C@H]2N(C)C1 [METHYSERGIDE] | > 10 | > 30 | > 30 | > 30 | > 10 | – | –
CNC(=C[N+](=O)[O-])NCCSCc1csc(CN(C)C)n1 [NIZATIDINE] | > 10 | – | > 30 | > 10 | – | – | –
CN1Cc2c(N)cccc2C(c2ccccc2)C1 (stereo not given) [NOMIFENSINE] | – | – | > 30 | > 30 | – | – | > 30
CC(CN1c2ccccc2Sc2ccccc21)N(C)C (stereo not given) [PROMETHAZINE] | 0.0996 | > 30 | > 30 | > 30 | – | 0.162 | –
CCCc1cc(=O)[nH]c(=S)[nH]1 [PROPYLTHIOURACIL] | > 10 | – | > 30 | > 10 | > 10 | – | –
Cn1cc(C(=O)[C@@H]2CCc3nc[nH]c3C2)c2ccccc21 [RAMOSETRON] | – | – | > 30 | > 30 | > 30 | – | 0.34
CN(CCOc1ccc(CC2SC(=O)NC2=O)cc1)c1ccccn1 (stereo not given) [ROSIGLITAZONE] | – | > 30 | > 30 | > 30 | > 30 | > 10 | –
S=P(N1CC1)(N1CC1)N1CC1 [THIOTEPA] | – | – | > 30 | – | – | – | –
CC(C)C[C@H](NC(=O)[C@@H](O)[C@H](N)Cc1ccccc1)C(=O)O [UBENIMEX] | – | – | > 30 | > 30 | > 30 | – | –
COc1cc(C(=O)NS(=O)(=O)c2ccccc2C)ccc1Cc1cn(C)c2ccc(NC(=O)OC3CCCC3)cc12 [ZAFIRLUKAST] | > 10 | – | 14 | – | > 30 | – | –
